Experimental data: patent publication US20050054708A1, “Combinations of drugs for the treatment of neoplasms” (priority 2003, published 2005)
Where two headings read alike, the source gives them in different places.

Tests used:
A549 cells = experiment: Anti-proliferation assay (Alamar Blue metabolism);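 also: 384-well plates, 72–80 h exposure at 37 °C, Alamar Blue fluorescence (ex 530 nm) read 3.5–5 h after dye addition, inhibition relative to mean of vehicle-only wells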
Description: Human non-small cells lung carcinoma cells A549 (ATCC# CCL-185), were grown at 37±0.5° C. and 5% CO2 in DMEM supplemented with 10% FBS, 2 mM glutamine, 1% penicillin, and 1% streptomycin.
Stock solutions (1000×) of each compound were prepared in DMSO and stored at −20° C. Master stock plates of 2-fold or 4-fold serial dilutions of individual compounds were prepared in 384-well plates. Combination matrices of test compounds were generated from these master stock plates by dilution into growth media described above. […] The combination matrices were used immediately and discarded.
The anti-proliferation assays were performed in 384-well plates. 6.6 μL of 10× stock solutions from the combination matrices were added to 40 μL of culture media in assay wells. The tumor cells were liberated from the culture flask using a solution of 0.25% trypsin. Cells were diluted in culture media such that 3000 or 6000 cells were delivered in 20 μL of media into each assay well. Assay plates were incubated for 72-80 hours at 37° C. ±0.5° C. with 5% CO2. Twenty microliters of 20% Alamar Blue warmed to 37° C. ±0.5° C. was added to each assay well following the incubation period. Alamar Blue metabolism was quantified by the amount of fluorescence intensity 3.5-5.0 hours after addition. Quantification, using an LJL Analyst AD reader (LJL Biosystems), was taken in the middle of the well with high attenuation, a 100 msec read time, an excitation filter at 530 nm, and an emission filter at 575 nm. For some experiments, quantification was performed using a Wallac Victor^2 reader. Measurements were taken at the top of the well with stabilized energy lamp control; a 100 msec read time, an excitation filter at 530 nm, and an emission filter at 590 nm.
The percent inhibition (% I) for each well was calculated using the following formula: % I=[(avg. untreated wells−treated well)/(avg. untreated wells)]×100 The average untreated well value (avg. untreated wells) is the arithmetic mean of 40 wells from the same assay plate treated with vehicle alone.
Inhibition of proliferation was measured by anti-proliferation assay as described below after incubation with the test compound(s) for 72 hours.

[1] = cited from earlier work

SMILES: O=c1[nH]cc(F)c(=O)[nH]1 [5-Fluorouracil, 5-fluorouracil]
- inhibition at 0.01 µM (A549 cells; Homo sapiens, A549, read-out: Percent inhibition of Alamar Blue Metabolism, 5-fluorouracil 0.01 μM alone): 2.9%
- inhibition at 0.1 µM (A549 cells; Homo sapiens, A549, read-out: Percent inhibition of Alamar Blue Metabolism, 5-fluorouracil 0.10 μM alone): -0.5%
- inhibition at 0.5 µM (A549 cells; Homo sapiens, A549, read-out: Percent inhibition of Alamar Blue Metabolism, 5-fluorouracil 0.50 μM alone): 40.6%
- inhibition at 0.75 µM (A549 cells; Homo sapiens, A549, read-out: Percent inhibition of Alamar Blue Metabolism, 5-fluorouracil 0.75 μM alone): 64.3%
- inhibition at 1 µM (A549 cells; Homo sapiens, A549, read-out: Percent inhibition of Alamar Blue Metabolism, 5-fluorouracil 1.00 μM alone): 75.4%
- inhibition at 1.5 µM (A549 cells; Homo sapiens, A549, read-out: Percent inhibition of Alamar Blue Metabolism, 5-fluorouracil 1.50 μM alone): 73.6%
- inhibition at 2 µM (A549 cells; Homo sapiens, A549, read-out: Percent inhibition of Alamar Blue Metabolism, 5-fluorouracil 2.00 μM alone): 87.2%
- inhibition at 5 µM (A549 cells; Homo sapiens, A549, read-out: Percent inhibition of Alamar Blue Metabolism, 5-fluorouracil 5.00 μM alone): 79.8%
- inhibition at 10 µM (A549 cells; Homo sapiens, A549, read-out: Percent inhibition of Alamar Blue Metabolism, 5-fluorouracil 10.00 μM alone): 82.4%

SMILES: N.N.O=C([O-])C1(C(=O)[O-])CCC1.[Pt+2] [Carboplatin, carboplatin]
- Percent inhibition of Alamar Blue Metabolism (A549 cells; carboplatin 0.15 μM alone): 5.5%
- Percent inhibition of Alamar Blue Metabolism (A549 cells; carboplatin 0.30 μM alone): 14.5%
- Percent inhibition of Alamar Blue Metabolism (A549 cells; carboplatin 0.59 μM alone): 9.8%
- Percent inhibition of Alamar Blue Metabolism (A549 cells; carboplatin 1.19 μM alone): −19.0%
- Percent inhibition of Alamar Blue Metabolism (A549 cells; carboplatin 2.38 μM alone): 13.9%
- Percent inhibition of Alamar Blue Metabolism (A549 cells; carboplatin 4.75 μM alone): 16.4%
- Percent inhibition of Alamar Blue Metabolism (A549 cells; carboplatin 9.50 μM alone): 35.8%
- Percent inhibition of Alamar Blue Metabolism (A549 cells; carboplatin 19.00 μM alone): 30.5%
- Percent inhibition of Alamar Blue Metabolism (A549 cells; carboplatin 38.00 μM alone): 48.7%

SMILES: COc1cccc2c1C(=O)c1c(O)c3c(c(O)c1C2=O)C[C@@](O)(C(=O)CO)C[C@@H]3O[C@H]1C[C@H](N)[C@H](O)[C@H](C)O1 [Doxorubicin, doxorubicin]
- inhibition at 0.0008 µM (A549 cells; Homo sapiens, A549, read-out: Percent inhibition of Alamar Blue Metabolism, doxorubicin 0.0008 μM alone): 32%
- inhibition at 0.0016 µM (A549 cells; Homo sapiens, A549, read-out: Percent inhibition of Alamar Blue Metabolism, doxorubicin 0.0016 μM alone): 27.5%
- inhibition at 0.0031 µM (A549 cells; Homo sapiens, A549, read-out: Percent inhibition of Alamar Blue Metabolism, doxorubicin 0.0031 μM alone): 34.4%
- inhibition at 0.0063 µM (A549 cells; Homo sapiens, A549, read-out: Percent inhibition of Alamar Blue Metabolism, doxorubicin 0.0063 μM alone): 40.3%
- inhibition at 0.0125 µM (A549 cells; Homo sapiens, A549, read-out: Percent inhibition of Alamar Blue Metabolism, doxorubicin 0.0125 μM alone): 55.6%
- inhibition at 0.025 µM (A549 cells; Homo sapiens, A549, read-out: Percent inhibition of Alamar Blue Metabolism, doxorubicin 0.0250 μM alone): 63.8%
- inhibition at 0.05 µM (A549 cells; Homo sapiens, A549, read-out: Percent inhibition of Alamar Blue Metabolism, doxorubicin 0.0500 μM alone): 67.5%
- inhibition at 0.1 µM (A549 cells; Homo sapiens, A549, read-out: Percent inhibition of Alamar Blue Metabolism, doxorubicin 0.1000 μM alone): 63%
- inhibition at 0.2 µM (A549 cells; Homo sapiens, A549, read-out: Percent inhibition of Alamar Blue Metabolism, doxorubicin 0.2000 μM alone): 62.9%

SMILES: COc1cc([C@@H]2c3cc4c(cc3[C@@H](O[C@@H]3O[C@@H]5CO[C@@H](C)O[C@H]5[C@H](O)[C@H]3O)[C@H]3COC(=O)[C@H]23)OCO4)cc(OC)c1O [Etoposide, etoposide]
- inhibition at 0.04 µM (A549 cells; Homo sapiens, A549, read-out: Percent inhibition of Alamar Blue Metabolism, etoposide 0.04 μM alone): 3.9%
- inhibition at 0.08 µM (A549 cells; Homo sapiens, A549, read-out: Percent inhibition of Alamar Blue Metabolism, etoposide 0.08 μM alone): 46.5%
- inhibition at 0.16 µM (A549 cells; Homo sapiens, A549, read-out: Percent inhibition of Alamar Blue Metabolism, etoposide 0.16 μM alone): 38.7%
- inhibition at 0.31 µM (A549 cells; Homo sapiens, A549, read-out: Percent inhibition of Alamar Blue Metabolism, etoposide 0.31 μM alone): 42.7%
- inhibition at 0.63 µM (A549 cells; Homo sapiens, A549, read-out: Percent inhibition of Alamar Blue Metabolism, etoposide 0.63 μM alone): 52.4%
- inhibition at 1.25 µM (A549 cells; Homo sapiens, A549, read-out: Percent inhibition of Alamar Blue Metabolism, etoposide 1.25 μM alone): 62.8%
- inhibition at 2.5 µM (A549 cells; Homo sapiens, A549, read-out: Percent inhibition of Alamar Blue Metabolism, etoposide 2.50 μM alone): 76.1%
- inhibition at 5 µM (A549 cells; Homo sapiens, A549, read-out: Percent inhibition of Alamar Blue Metabolism, etoposide 5.00 μM alone): 77.5%
- inhibition at 10 µM (A549 cells; Homo sapiens, A549, read-out: Percent inhibition of Alamar Blue Metabolism, etoposide 10.00 μM alone): 79.4%

SMILES: Nc1ccn([C@@H]2O[C@H](CO)[C@@H](O)C2(F)F)c(=O)n1 [Gemcitabine, gemcitabine]
- inhibition at 0.00016 µM (A549 cells; Homo sapiens, A549, read-out: Percent inhibition of Alamar Blue Metabolism, gemcitabine 0.00016 μM alone): 7.9%
- inhibition at 0.00033 µM (A549 cells; Homo sapiens, A549, read-out: Percent inhibition of Alamar Blue Metabolism, gemcitabine 0.00033 μM alone): 19.1%
- inhibition at 0.00066 µM (A549 cells; Homo sapiens, A549, read-out: Percent inhibition of Alamar Blue Metabolism, gemcitabine 0.00066 μM alone): 11.3%
- inhibition at 0.00131 µM (A549 cells; Homo sapiens, A549, read-out: Percent inhibition of Alamar Blue Metabolism, gemcitabine 0.00131 μM alone): 12.3%
- inhibition at 0.00263 µM (A549 cells; Homo sapiens, A549, read-out: Percent inhibition of Alamar Blue Metabolism, gemcitabine 0.00263 μM alone): 13.8%
- inhibition at 0.00525 µM (A549 cells; Homo sapiens, A549, read-out: Percent inhibition of Alamar Blue Metabolism, gemcitabine 0.00525 μM alone): 61.8%
- inhibition at 0.0105 µM (A549 cells; Homo sapiens, A549, read-out: Percent inhibition of Alamar Blue Metabolism, gemcitabine 0.01050 μM alone): 87.4%
- inhibition at 0.021 µM (A549 cells; Homo sapiens, A549, read-out: Percent inhibition of Alamar Blue Metabolism, gemcitabine 0.02100 μM alone): 88.7%
- inhibition at 0.042 µM (A549 cells; Homo sapiens, A549, read-out: Percent inhibition of Alamar Blue Metabolism, gemcitabine 0.04200 μM alone): 89.8%

SMILES: N=C(N)c1ccc(OCCCCCOc2ccc(C(=N)N)cc2)cc1 [Pentamidine isethionate, 4,4′-diamidino-diphenoxypentane di(β-hydroxyethanesulfonate)]
- solubility ([1]; in ether, acetone, and chloroform): insoluble
- solubility ([1]; in water and glycerin): soluble

SMILES: CC[C@]1(O)C[C@@H]2CN(CCc3c([nH]c4ccccc34)[C@@](C(=O)OC)(c3cc4c(cc3OC)N(C)[C@H]3[C@@](O)(C(=O)OC)[C@H](OC(C)=O)[C@]5(CC)C=CCN6CC[C@]43[C@@H]65)C2)C1 [Vinblastine, vinblastine]
- inhibition at 0.0001 µM (A549 cells; Homo sapiens, A549, read-out: Percent inhibition of Alamar Blue Metabolism, vinblastine 0.0001 μM alone): -22.3%
- inhibition at 0.0002 µM (A549 cells; Homo sapiens, A549, read-out: Percent inhibition of Alamar Blue Metabolism, vinblastine 0.0002 μM alone): -8.3%
- inhibition at 0.0004 µM (A549 cells; Homo sapiens, A549, read-out: Percent inhibition of Alamar Blue Metabolism, vinblastine 0.0004 μM alone): 7.4%
- inhibition at 0.0008 µM (A549 cells; Homo sapiens, A549, read-out: Percent inhibition of Alamar Blue Metabolism, vinblastine 0.0008 μM alone): 41.5%
- inhibition at 0.0016 µM (A549 cells; Homo sapiens, A549, read-out: Percent inhibition of Alamar Blue Metabolism, vinblastine 0.0016 μM alone): 48.4%
- inhibition at 0.0031 µM (A549 cells; Homo sapiens, A549, read-out: Percent inhibition of Alamar Blue Metabolism, vinblastine 0.0031 μM alone): 61.1%
- inhibition at 0.0063 µM (A549 cells; Homo sapiens, A549, read-out: Percent inhibition of Alamar Blue Metabolism, vinblastine 0.0063 μM alone): 67.2%
- inhibition at 0.0125 µM (A549 cells; Homo sapiens, A549, read-out: Percent inhibition of Alamar Blue Metabolism, vinblastine 0.0125 μM alone): 77.2%
- inhibition at 0.025 µM (A549 cells; Homo sapiens, A549, read-out: Percent inhibition of Alamar Blue Metabolism, vinblastine 0.0250 μM alone): 85.5%
